Each structure is given as a SMILES string.

This test deals with human umbilical vein endothelial cells. Put plainly: Human Umbilical Vein Endothelial Cell (HUVEC) Proliferation Assay. The class given is cell-based. As to conditions: 96 h, four days incubation, Sulphorhodamine B staining. The protocol: The compounds of Formula I are useful for treating cell proliferative disorders concerning angiogenesis and have been evaluated in a human umbilical vein endothelial cell in vitro assay. The assay described below is used to determine the anti-proliferative effects of the invention compounds on human umbilical vein endothelial cells, and the results are shown in Table 7.
Human Umbilical Vein Endothelial Cell (HUVEC) Proliferation Assay
Ninety-six well tissue culture plates are seeded with 100 µL of cells in all wells of rows A->G with row H remaining empty as a blank. HUVEC (Clonetics, San Diego, CA) are grown in endothelial growth medium (EGM media, Clonetics), containing 2% fetal bovine serum. The cell seed density for HUVEC cells is 20,000 per mL. C6 cells (ATCC Cat. No. CCL-107) are seeded at 6000 per mL in F10 medium (nutrient mixture Hemes) supplemented with 15% horse serum, 2.5% fetal bovine serum, and 6.0 mL 200 mM Glutamine per 600 mL medium. A90 cells (Suny, Buffalo, NY) are also seeded at 6000 per mL, but they are grown in RPMI 1640 (Roswell Park Memorial Institute) plus 10% fetal bovine serum. Unless noted otherwise, tissue culture media and components are from GIBCO. The cells are allowed to incubate at 37°C, 5% CO2, and 100% relative humidity for 16-24 hours.
Invention compounds are prepared by dissolving them in DMSO at a concentration of 5 mM, followed by dilution to 50 µM in EGM media. One hundred microliters of the compounds are applied to duplicate wells in column 1 of the previously prepared cell plates. Column 1 row H receives 100 µL of EGM media. The compounds in column 1 are diluted across the plates using serial twofold dilutions.
The plates are incubated as above for an additional four days before being stained with Sulphorhodamine B. Staining is performed as follows: The media is removed from the plates, and the cells are fixed using 10% trichloroacetic acid for 30 minutes at 4°C. Following fixation, the plates are washed five times with distilled water after which 100 µL of Sulphorhodamine B is added to each well. Sulphorhodamine B is dissolved in 1% acetic acid to a concentration of .075%. Following staining, excess stain is removed from the wells, and the plates are washed four times with 1% acetic acid. The plates are allowed to air dry before the bound dye is solubilized in 100 µL of 10 mM unbuffered TRIS base. Absorbance is measured on a 96 well plate reader at […] using a reference filter wavelength of 630 nm. […] Sulphorhodamine B and TRIS are from Sigma Chemical Company. Acetic acid and trichloroacetic acid are from Mallinckrodt AR.
A general note: Sulforhodamine B stains cellular protein and so reports cell mass.
`CCN1C(=O)N(c2cc(OC)cc(OC)c2)Cc2cnc(NCCCN3CCN(C)CC3)nc21` [Example 57, 3-(3,5-Dimethoxy-phenyl)-1-ethyl-7-[3-(4-methyl-piperazin-1-yl)-propylamino]-3,4-dihydro-pyrimido[4,5-d]pyrimidin-2(1H)-one] yielded an IC50 of 152 nM. That is a sub-micromolar value. Under `CCN1C(=O)N(c2cc(OC)cc(OC)c2)Cc2cnc(NCCCCN3CCN(C)CC3)nc21` [Example 58, 3-(3,5-Dimethoxy-phenyl)-1-ethyl-7-[4-(4-methyl-piperazin-1-yl)-butylamino]-3,4-dihydro-pyrimido[4,5-d]pyrimidin-2(1H)-one] stands 134 nM; under `CCN1C(=O)N(c2cc(OC)cc(OC)c2)Cc2cnc(NCCCCCN3CCN(C)CC3)nc21` [Example 59, 3-(3,5-Dimethoxy-phenyl)-1-ethyl-7-[5-(4-methyl-piperazin-1-yl)-pentylamino]-3,4-dihydro-pyrimido[4,5-d]pyrimidin-2(1H)-one], 112 nM. `CCN(CC)CCCNc1ncc2c(n1)N(CC)C(=O)N(c1cc(OC)cc(OC)c1)C2` [Example 60, 7-(3-Diethylamino-propylamino)-3-(3,5-dimethoxy-phenyl)-1-ethyl-3,4-dihydro-pyrimido[4,5-d]pyrimidin-2(1H)-one] showed an IC50 of 943 nM. As to `CCN(CC)CCCCNc1ncc2c(n1)N(CC)C(=O)N(c1cc(OC)cc(OC)c1Cl)C2` [Example 65, 3-(2-Chloro-3,5-dimethoxy-phenyl)-7-(4-diethylamino-butylamino)-1-ethyl-3,4-dihydro-pyrimido[4,5-d]pyrimidin-2(1H)-one], the IC50 was determined as 36 nM.

Usually IC50 stands for the concentration that inhibits the measured activity by half. Higher therefore signals lower potency.

(Values after EP1801112A1, “Bicyclic pyrimidines and bicyclic 3,4-dihydropyrimidines as inhibitors of cellular proliferation” (Warner-Lambert Company LLC, priority 1998, dated 1999).)
